Measured values as given in ChEMBL document CHEMBL2073956, “ATP-dependent transport of bile salts by rat multidrug resistance-associated protein 3 (Mrp3)” (J Biol Chem, 2000).
Structures can show the parent of a compound that is named as a salt.

Tests used:
Format in all cases: functional, cell membranes, Membrane vesicle
[1] = biological target: T1, ATP-binding cassette sub-family C member 3 (Rattus norvegicus, UniProt O88563); assay: (§1) TP_TRANSPORTER: uptake in membrane vesicles isolated from Mrp3-expressing LLC-PK1 cells; settings: pig, llc-pk1
[2] = biological target: T1, ATP-binding cassette sub-family C member 3; assay: (§2) TP_TRANSPORTER: uptake in membrane vesicles from LLC-PK1 cells; settings: pig
[3] = biological target: T2, ATP-binding cassette sub-family C member 3 (MRP3) (Rattus norvegicus, UniProt O88563); assay: TP_TRANSPORTER: inhibition of E217betaG uptake (E217betaG: 0.055 uM, TCDC-S: 50 uM) in membrane vesicles from LLC-PK1 cells; set-up: scale not given: the % may be the effect or the level left; settings: pig, probe E217betaG, read-out: Activity
[4] = biological target: T2, ATP-binding cassette sub-family C member 3 (MRP3); assay: TP_TRANSPORTER: inhibition of Taurocholate uptake (Taurochorate: 1.2 uM, TCDC-S: 50 uM) in membrane vesicles from LLC-PK1 cells; set-up: scale not given: the % may be the effect or the level left; settings: pig, probe taurocholate, read-out: Activity
[5] = biological target: T3, Mrp3 (ATP-binding cassette sub-family C member 3) (Rattus norvegicus, UniProt O88563); assay: TP_TRANSPORTER: inhibition of Taurocholate uptake (TCDC-S: 50 uM) in membrane vesicles isolated from Mrp3-expressing LLC-PK1 cells; set-up: scale not given: the % may be the effect or the level left; settings: pig, probe taurocholate, read-out: Activity
[6] = biological target: T1, ATP-binding cassette sub-family C member 3; assay: TP_TRANSPORTER: inhibition of E217betaG uptake (E217betaG: 0.055 uM, TCDC-S: 50 uM) in membrane vesicles isolated from Mrp3-expressing LLC-PK1 cells; set-up: scale not given: the % may be the effect or the level left; settings: pig, llc-pk1, 50 µM
[7] = biological target: T1, ATP-binding cassette sub-family C member 3; assay: TP_TRANSPORTER: inhibition of Taurocholate uptake (Taurochorate: 1.2 uM, GC: 50 uM) in membrane vesicles isolated from Mrp3-expressing LLC-PK1 cells; set-up: scale not given: the % may be the effect or the level left; settings: pig, llc-pk1, 50 µM
[8] = biological target: T2, ATP-binding cassette sub-family C member 3 (MRP3); assay: TP_TRANSPORTER: inhibition of Taurocholate uptake (Taurochorate: 1.2 uM, CA: 500 uM) in membrane vesicles from LLC-PK1 cells; set-up: scale not given: the % may be the effect or the level left; settings: pig, probe taurocholate, read-out: Activity
[9] = biological target: T3, Mrp3 (ATP-binding cassette sub-family C member 3); assay: TP_TRANSPORTER: inhibition of E217betaG uptake (E217betaG: 0.055 uM, GC: 200 uM) in membrane vesicles isolated from Mrp3-expressing LLC-PK1 cells; set-up: scale not given: the % may be the effect or the level left; settings: pig, probe E217betaG, read-out: Activity
[10] = biological target: T2, ATP-binding cassette sub-family C member 3 (MRP3); assay: TP_TRANSPORTER: inhibition of E217betaG uptake (E217betaG: 0.055 uM, GC: 200 uM) in membrane vesicles from LLC-PK1 cells; set-up: scale not given: the % may be the effect or the level left; settings: pig, probe E217betaG, read-out: Activity
[11] = biological target: T3, Mrp3 (ATP-binding cassette sub-family C member 3); assay: TP_TRANSPORTER: inhibition of Taurocholate uptake (Taurochorate: 1.2 uM, E217betaG: 200 uM) in membrane vesicles isolated from Mrp3-expressing LLC-PK1 cells; set-up: scale not given: the % may be the effect or the level left; settings: pig, probe taurocholate, read-out: Activity
[12] = biological target: T2, ATP-binding cassette sub-family C member 3 (MRP3); assay: TP_TRANSPORTER: inhibition of Taurocholate uptake (Taurochorate: 1.2 uM, E217betaG: 75 uM) in membrane vesicles from LLC-PK1 cells; set-up: scale not given: the % may be the effect or the level left; settings: pig, probe taurocholate, read-out: Activity
[13] = biological target: T3, Mrp3 (ATP-binding cassette sub-family C member 3); assay: as §1; settings: pig, membrane vesicles from Mrp3-expressing LLC-PK1 cells
[14] = biological target: T3, Mrp3 (ATP-binding cassette sub-family C member 3); assay: TP_TRANSPORTER: inhibition of Taurocholate uptake (Taurochorate: 1.2 uM, TLCAS: 20 uM) in membrane vesicles isolated from Mrp3-expressing LLC-PK1 cells; set-up: scale not given: the % may be the effect or the level left; settings: pig, probe taurocholate, read-out: Activity
[15] = biological target: T2, ATP-binding cassette sub-family C member 3 (MRP3); assay: TP_TRANSPORTER: inhibition of E217betaG uptake (E217betaG: 0.055 uM, TLC-S: 20 uM) in membrane vesicles from LLC-PK1 cells; set-up: scale not given: the % may be the effect or the level left; settings: pig, probe E217betaG, read-out: Activity
[16] = substrate: [H][C@]12CC[C@]3([H])[C@]([H])(CC[C@]4(C)C([C@H](C)CCC(=O)NCCS(=O)(=O)O)CC[C@@]34[H])[C@@]1(C)CC[C@@H](OS(=O)(=O)O)C2; assay: as §2

C[C@H](CCC(=O)NCCS(=O)(=O)O)C1CC[C@H]2[C@@H]3[C@H](O)C[C@@H]4C[C@H](OS(=O)(=O)O)CC[C@]4(C)[C@H]3CC[C@]12C (stereo partly drawn) [TAUROCHENODEOXYCHOLATE SULFATE] was tested, and the Activity [1] was “substrate [+]”, the Activity [2] was “substrate [+]” and the activity at 50 µM [3] was 26.2%. For the same molecule, the activity at 50 µM [4] was 27.8%, the activity at 50 µM [5] was 27.8% and the Activity [6] was 26.2%.

With C[C@H](CCC(=O)NCC(=O)O)[C@H]1CC[C@H]2[C@@H]3[C@H](O)C[C@@H]4C[C@H](O)CC[C@]4(C)[C@H]3C[C@H](O)[C@]12C [GLYCOCHOLIC ACID] the Activity [1] was “substrate [+]”, the Activity [2] was “substrate [+]” and the Activity [7] was 16%. For the same molecule, the activity at 500 µM [8] was 0%, the activity at 200 µM [9] was 13.9% and the activity at 200 µM [10] was 13.9%.

C[C@]12CC[C@@H]3c4ccc(O)cc4CC[C@H]3[C@@H]1CC[C@@H]2O[C@@H]1O[C@H](C(=O)O)[C@@H](O)[C@H](O)[C@H]1O [ESTRADIOL 17B GLUCURONIDE] showed an activity at 200 µM [11] of 78.4% and an activity at 75 µM [12] of 78.4%.

With C[C@H](CCC(=O)NCCS(=O)(=O)O)C1CC[C@H]2[C@@H]3CC[C@@H]4C[C@H](OS(=O)(=O)O)CC[C@]4(C)[C@H]3CC[C@]12C (stereo partly drawn) the Km [13] was 3.06 µM, the activity at 20 µM [14] was 12.2% and the activity at 20 µM [15] was 15.5%.

B1: ATP-binding cassette sub-family C member 3 (Rattus norvegicus) (protein)
chain: MDRLCGSGELGSKFWDSNLTVYTNTPDLTPCFQNSLLAWVPCIYLWAALPCYLFYLRHHRLGYIVLSCLSRLKTALGVLLWCISWVDLFYSFHGLVHGSSPAPVFFITPLLVGITMLLATLLIQYERLRGVRSSGVLIIFWLLCVICAIIPFRSKILLALAEGKILDPFRFTTFYIYFALVLCAFILSCFQEKPPLFSPENLDTNPCPEASAGFFSRLSFWWFTKLAILGYRRPLEDSDLWSLSEEDCSHKVVQRLLEAWQKQQTQASGPQTAALEPKIAGEDEVLLKARPKTKKPSFLRALVRTFTSSLLMGACFKLIQDLSPSSTHSCSASSSGLFRPHGPYWWGFLLAGLMFVSSTMQTLILHQHYHCIFVMALRIRTAIIGVIYRKALTITNSVKREYTVGEMVNLMSVDAQRFMDVSPFINLLWSAPLQVILAIYFLWQILGPSALAGVAVIVLLIPLNGAVSMKMKTYQVQQMKFKDSRIKLMSEILNGIKVLKLYAWEPTFLEQVEGIRQGELQLLRKGAYLQAISTFIWVCTPFMVTLITLGVYVCVDKNNVLDAEKAFVSLSLFNILKIPLNLLPQLISGMTQTSVSLKRIQDFLNQDELDPQCVERKTISPGRAITIHNGTFSWSKDLPPTLHSINIQIPKGALVAVVGPVGCGKSSLVSALLGEMEKLEGAVSVKGSVAYVPQQAWIQNCTLQENVLFGQPMNPKRYQQALETCALLADLDVLPGGDQTEIGEKGINLSGGQRQRVSLARAVYSDANIFLLDDPLSAVDSHVAKHIFDQVIGPEGVLAGKTRVLVTHGISFLPQTDFIIVLADGQITEMGHYSELLQHDGSFANFLRNYAPDENQEANEGVLQHANEEVLLLEDTLSTHTDLTDTEPAIYEVRKQFMREMSSLSSEGEGQNRPVLKRYTSSLEKEVPATQTKETGALIKEEIAETGNVKLSVYWDYAKSVGLCTTLFICLLYAGQNAVAIGANVWLSAWTNDVEEHGQQNNTSVRLGVYATLGILQGLLVMLSAFTMVVGAIQAARLLHTALLHNQIRAPQSFFDTTPSGRILNRFSKDIYVIHEVLAPTILMLFNSFYTSISTIVVIVASTPLFCVVVLPLAVFYGFVQRFYVATSRQLKRLESVSRSPIFSHFSETVTGTSVIRAYGRVQDFKVLSDAKVDSNQKTTYPYIASNRWLGVHVEFVGNCVVLFSALFAVIGRNSLNPGLVGLSVSYALQVTLSLNWMIRTLSDLESNIIAVERVKEYSKTETEAPWVLESNRAPEGWPRSGVVEFRNYSVRYRPGLELVLKNLTLHVQGGEKVGIVGRTGAGKSSMTLCLFRILEAAEGEIFIDGLNVAHIGLHDLRSQLTIIPQDPILFSGTLRMNLDPFGRYSDEDIWRTLELSHLSAFVSSQPTGLDFQCSEGGDNLSVGQRQLVCLARALLRKSRVLVLDEATAAIDLETDDLIQGTIRTQFEDCTVLTIAHRLNTIMDYNRVLVLDKGVVAEFDSPVNLIAAGGIFYGMAKDAGLA
Work on B1 yielded a Km [16] of 3.06 µM.
